Entries after “also recorded” stand apart in the source; their conditions may differ.
Assays:
TgCDPK1 = TgCDPK1 (Toxoplasma gondii, UniProt Q9BJF5); format: biochemical
CpCDPK1 = CpCDPK1 (Cryptosporidium parvum (strain Iowa II), UniProt A3FQ16); format: biochemical
C. parvum [1] = experiment: C. parvum infection of HCT-8 cells (rRNA reverse transcriptase real time PCR); format: cell-based, Cryptosporidium parvum; settings: inhibitor at time of infection and 1 hour after infection
SRC = SRC (Homo sapiens (Human), UniProt P12931); experiment: Tyrosine kinase SRC counter-screen; format: biochemical
PfCDPK1 = PfCDPK1 (Plasmodium falciparum (isolate 3D7), UniProt P62344); experiment: biochemical; settings: read-out: PfCDPK1 (% inhibition @ 3 uM)
PfCDPK4 = PfCDPK4 (Plasmodium falciparum (isolate 3D7), UniProt Q8IBS5); experiment: biochemical; settings: read-out: PfCDPK4 (% inhibition @ 3 uM)
ABL = ABL (Homo sapiens (Human), UniProt P00519)
[2] = test system: human promyelocytic leukemia (HL-60); experiment: Growth inhibition / toxicity in human cell line HL-60; settings: HL60, 10 μM
[3] = test system: human lymphocyte (CRL8155); experiment: Growth inhibition / toxicity in human cell line CRL8155; settings: CRL8155, 10 μM
[4] = test system: P. berghei expressing PfCDPK4-2x-myc; parameters: species or system Plasmodium berghei; settings: in vivo
P. berghei = test system: P. berghei; parameters: species or system Plasmodium berghei; settings: in vivo
P. falciparum = P. falciparum NF54 gametocyte exflagellation with compound in blood; format: cell-based, Plasmodium falciparum
C. parvum [5] = experiment: Immunosuppressed (SCID-beige) mouse C. parvum model, stool qRT-PCR; format: in vivo, Cryptosporidium parvum; settings: oral gavage once a day, days 3-7 and 10-14; 29 and 150 50 mg/kg/day, Paromomycin 2 g/kg/day
Experimental: Shown are mean of the parasite numbers detected in 25 mg of stool from each mouse, by qRT-PCR.

glioma derived (SF539) = experiment: Growth inhibition / toxicity in human cell line SF539

Row | Compound | inhibition of CpCDPK1 (in words) (CpCDPK1) | inhibition at 3 µM (PfCDPK1) [%] | inhibition at 3 µM (PfCDPK4) [%] | also measured
1 | CC(C)(C)n1nc(-c2ccc3ccccc3c2)c2c(N)ncnc21 [Compound 2, 1-tert-butyl-3-(naphthalen-2-yl)-1H-pyrazolo[3,4-d]pyrimidin-4-amine] | most potent inhibitor | – | – | inhibition of TgCDPK1 (in words) (TgCDPK1): most potent inhibitor; C. parvum parasite levels / proliferation in HCT-8 cells (C. parvum [1]): most potent effect
2 | Nc1ncnc2c1c(Cc1cccc3ccccc13)nn2CC1CCNCC1 [Compound 5h, 3-(naphthalen-1-ylmethyl)-1-(piperidin-4-ylmethyl)-1H-pyrazolo[3,4-d]pyrimidin-4-amine] | – | 66 | 95 | inhibition of SRC (in words) (SRC): reduced potency; inhibition of ABL (in words) (ABL): reduced potency
3 | CC(C)n1nc(-c2ccc(Cl)c(Cl)c2)c2c(N)ncnc21 [Compound 7c, 3-(3,4-dichlorophenyl)-1-isopropyl-1H-pyrazolo[3,4-d]pyrimidin-4-amine] | potent against both enzymes | 93 | 97 | –
4 | Cc1cc(-c2nn(C(C)C)c3ncnc(N)c23)ccc1F [Compound 7i, 3-(4-fluoro-3-methylphenyl)-1-isopropyl-1H-pyrazolo[3,4-d]pyrimidin-4-amine] | potent against both enzymes | 79 | 79 | –
5 | COc1ccc(-c2nn(C(C)C)c3ncnc(N)c23)cc1OC [Compound 7k, 3-(3,4-dimethoxyphenyl)-1-isopropyl-1H-pyrazolo[3,4-d]pyrimidin-4-amine] | potent against both enzymes | 93 | 43 | –
6 | COc1ccc(-c2nn(C(C)C)c3ncnc(N)c23)cc1C [Compound 7m, 1-isopropyl-3-(4-methoxy-3-methylphenyl)-1H-pyrazolo[3,4-d]pyrimidin-4-amine] | potent against both enzymes | 77 | 85 | –
7 | CC(C)n1nc(-c2cnc3ccccc3c2)c2c(N)ncnc21 [Compound 7t, 1-isopropyl-3-(quinolin-3-yl)-1H-pyrazolo[3,4-d]pyrimidin-4-amine] | potent inhibitors of both enzymes | 65 | 83 | inhibition of TgCDPK1 (in words) (TgCDPK1): potent inhibitors of both enzymes
8 | Cc1cccc2[nH]c(-c3nn(C(C)C)c4ncnc(N)c34)cc12 [Compound 25, 1-isopropyl-3-(4-methyl-1H-indol-2-yl)-1H-pyrazolo[3,4-d]pyrimidin-4-amine] | – | – | 92 | Cell Toxicity HL60, % at 10 μM [2]: 47% toxicity at; Cell Toxicity CRL8155, % at 10 μM [3]: 38% toxicity at
9 | CC(C)n1nc(-c2cc3c(Cl)cccc3[nH]2)c2c(N)ncnc21 [Compound 26, 3-(4-chloro-1H-indol-2-yl)-1-isopropyl-1H-pyrazolo[3,4-d]pyrimidin-4-amine] | – | – | 93 | Cell Toxicity HL60, % at 10 μM [2]: 45% toxicity at; Cell Toxicity CRL8155, % at 10 μM [3]: 38% toxicity at
10 | CCOc1ccc2cc(-c3nn(CC4CCNCC4)c4ncnc(N)c34)ccc2c1 [Compound 29, 3-(6-ethoxynaphthalen-2-yl)-1-(piperidin-4-ylmethyl)-1H-pyrazolo[3,4-d]pyrimidin-4-amine] | – | 97 | – | duration of complete suppression of male gametocyte differentiation to exflagellating units [4]: 14 h; exflagellation in blood samples from treated mice [4]: some exflagellation was observed; formation of oocysts in A. stephensi (P. berghei): completely blocked; P. falciparum exflagellation (P. falciparum; 1 and 3 μM): complete suppression; also recorded: suppressed completely; also recorded: prevented the exflagellation of microgametes; parasites in stool at the end of treatment (C. parvum [5]): not detected; rebound of parasite burden after treatment (C. parvum [5]): slowly
11 | Nc1ncnc2c1c(-c1ccc3cc(OCc4ccccc4)ccc3c1)nn2CC1CCNCC1 [Compound 34, 3-(6-(benzyloxy)naphthalen-2-yl)-1-(piperidin-4-ylmethyl)-1H-pyrazolo[3,4-d]pyrimidin-4-amine] | – | – | 97 | Cell Toxicity LD50 SF539 (glioma derived (SF539)): 6 µM
12 | CCOc1ccc2cc(-c3nn(CC4CCN(C)CC4)c4ncnc(N)c34)ccc2c1 [Compound 150, 3-(6-ethoxynaphthalen-2-yl)-1-((1-methylpiperidin-4-yl)methyl)-1H-pyrazolo[3,4-d]pyrimidin-4-amine] | – | – | – | EC50 (P. falciparum; Plasmodium falciparum, read-out: Parasite Proliferation Assay EC50 P. falciparum Exflaggelation): 50 nM; parasites in stool at the end of treatment (C. parvum [5]): not detected; rebound of parasite burden after treatment (C. parvum [5]): not
13 | CC(C)(C)n1nc(-c2ccc3ccccc3c2)c2c(N)ncnc21 [NA-PP2, reference compound] | – | – | – | formation of oocysts in A. stephensi (P. berghei): hundreds of oocysts per mosquito
14 | NC[C@@H]1O[C@H](O[C@H]2[C@@H](O)[C@H](O[C@@H]3[C@@H](O)[C@H](N)C[C@H](N)[C@H]3O[C@H]3O[C@H](CO)[C@@H](O)[C@H](O)[C@H]3N)O[C@@H]2CO)[C@H](N)[C@@H](O)[C@@H]1O [Paromomycin, reference compound] | – | – | – | parasites in stool at the end of treatment (C. parvum [5]): not detected; rebound of parasite burden after treatment (C. parvum [5]): quickly rebounded
